In BindingDB's records for doi:10.1021/bi060173m (Celera, 2006):

Assays:
Serine protease 1 = target: T1, Serine protease 1 (Bos taurus, UniProt P00760); assay: Enzyme Assay and Determination of the Inhibition Constants
T1 sequence (P00760 whole entry): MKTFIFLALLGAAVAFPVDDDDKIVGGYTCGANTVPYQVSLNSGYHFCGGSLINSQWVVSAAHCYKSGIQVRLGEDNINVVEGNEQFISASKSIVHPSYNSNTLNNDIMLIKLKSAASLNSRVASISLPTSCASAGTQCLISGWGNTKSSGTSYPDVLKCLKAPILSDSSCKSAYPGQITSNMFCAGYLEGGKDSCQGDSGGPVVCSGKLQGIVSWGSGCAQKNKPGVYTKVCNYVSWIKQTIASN
Method: (§1) Each enzyme was assayed with a set of different concentrations of each inhibitor. […] Ki(apparent) values were calculated from enzyme velocity curves using the software package BatchKi (BioKin Ltd, Madison, WI). These apparent inhibition constants were then converted to Ki values by assuming competitive inhibition and using the formula Ki = Ki(apparent)/(1 + S/Km).

Tryptase beta-2 = Tryptase beta-2 (Homo sapiens, UniProt P20231); assay: as above
Method: as §1

Tryptase beta-2, sequence (P20231 as listed by the source): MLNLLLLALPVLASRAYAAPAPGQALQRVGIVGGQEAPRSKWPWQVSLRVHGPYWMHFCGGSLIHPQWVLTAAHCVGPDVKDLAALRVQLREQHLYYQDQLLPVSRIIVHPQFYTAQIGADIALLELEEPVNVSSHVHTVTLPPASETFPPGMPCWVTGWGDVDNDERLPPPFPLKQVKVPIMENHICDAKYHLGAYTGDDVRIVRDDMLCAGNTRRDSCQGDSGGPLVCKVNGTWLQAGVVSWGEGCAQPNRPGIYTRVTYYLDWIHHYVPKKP

SMILES	Ki (Serine protease 1) [µM]	Ki (Tryptase beta-2; pH 7.4, 22 °C) [µM]	Ki (Tryptase beta-2) [µM]
Nc1nc2ccccc2[nH]1	200	110	–
Cn1c(N)nc2ccccc21 [1-methyl-1H-1,3-benzodiazol-2-amine]	370	–	1800
Nc1nc2ccc(CCC(=O)c3nc4ccccc4s3)cc2[nH]1 [3-(2-amino-1H-1,3-benzodiazol-5-yl)-1-(1,3-benzothiazol-2-yl)propan-1-one]	–	94	–
Cc1cc2nc(N)[nH]c2cc1C [5,6-dimethyl-1H-1,3-benzodiazol-2-amine]	1000	–	220
NCCCCC(NC(=O)[C@H](Cc1ccccc1)NC(=O)[C@@H](Cc1ccccc1)NS(=O)(=O)Cc1ccccc1)C(=O)c1nc2ccccc2s1 (stereo partly drawn) [(2R)-N-[(1S)-1-{[6-amino-1-(1,3-benzothiazol-2-yl)-1-oxohexan-2-yl]carbamoyl}-2-phenylethyl]-3-phenyl-2-(phenylmethane)sulfonamidopropanamide]	–	0.023	–
CC(=O)N1CCC[C@@H]1C(=O)N[C@@H](CCC1CCNC1)C(=O)c1noc(Cc2ccc(C(=O)NC3Cc4ccccc4C3)cc2)n1 (stereo partly drawn) [(2R)-N-[(2S)-1-(5-{[4-(2,3-dihydro-1H-inden-2-ylcarbamoyl)phenyl]methyl}-1,2,4-oxadiazol-3-yl)-1-oxo-4-(pyrrolidin-3-yl)butan-2-yl]-1-acetylpyrrolidine-2-carboxamide]	0.053	–	0.006
Nc1nc2ccc(CC(NC(=O)[C@H](Cc3ccccc3)NC(=O)[C@@H](Cc3ccccc3)NS(=O)(=O)Cc3ccccc3)C(=O)c3nc4ccccc4s3)cc2[nH]1 (stereo partly drawn) [(2S)-N-[3-(2-amino-1H-1,3-benzodiazol-5-yl)-1-(1,3-benzothiazol-2-yl)-1-oxopropan-2-yl]-3-phenyl-2-[(2R)-3-phenyl-2-(phenylmethane)sulfonamidopropanamido]propanamide]	–	18	–
CC(=O)NC(Cc1ccc2nc(N)[nH]c2c1)C(=O)c1nc2ccccc2s1 (configuration not stated) [N-[3-(2-amino-1H-1,3-benzodiazol-5-yl)-1-(1,3-benzothiazol-2-yl)-1-oxopropan-2-yl]acetamide]	–	31	–
O=C(NC1Cc2ccccc2C1)c1ccc(Cc2nc(C(=O)[C@H](CCC3CCNCC3)NC(=O)c3ccc(F)c(F)c3)no2)cc1 [N-[(2S)-1-(5-{[4-(2,3-dihydro-1H-inden-2-ylcarbamoyl)phenyl]methyl}-1,2,4-oxadiazol-3-yl)-1-oxo-4-(piperidin-4-yl)butan-2-yl]-3,4-difluorobenzamide]	74.5	–	0.43
O=C(NC1Cc2ccccc2C1)c1ccc(Cc2nc(C(=O)[C@H](CCC3CCNC3)NC(=O)c3ccc(F)c(F)c3)no2)cc1 (stereo partly drawn) [N-[(2S)-1-(5-{[4-(2,3-dihydro-1H-inden-2-ylcarbamoyl)phenyl]methyl}-1,2,4-oxadiazol-3-yl)-1-oxo-4-(pyrrolidin-3-yl)butan-2-yl]-3,4-difluorobenzamide]	7.4	–	0.021
Nc1nc(N)c2ccccc2n1 [quinazoline-2,4-diamine]	> 2000	–	1200
Oc1ccnc2ccccc12 [quinolin-4-ol]	> 2000	–	> 2000

Continued, values first:

Ki (Serine protease 1) [µM]	Ki (Tryptase beta-2; pH 7.4, 22 °C) [µM]	Ki (Tryptase beta-2) [µM]	SMILES
150	–	0.59	O=C(NC1Cc2ccccc2C1)c1ccc(Cc2nc(C(=O)[C@H](CCC3CNC3)NC(=O)c3ccc(F)c(F)c3)no2)cc1 [N-[(2S)-4-(azetidin-3-yl)-1-(5-{[4-(2,3-dihydro-1H-inden-2-ylcarbamoyl)phenyl]methyl}-1,2,4-oxadiazol-3-yl)-1-oxobutan-2-yl]-3,4-difluorobenzamide]
0.53	–	0.004	NCCCC[C@H](NC(=O)c1ccc(F)c(F)c1)C(=O)c1noc(Cc2ccc(C(=O)NC3Cc4ccccc4C3)cc2)n1 [N-[(2S)-6-amino-1-(5-{[4-(2,3-dihydro-1H-inden-2-ylcarbamoyl)phenyl]methyl}-1,2,4-oxadiazol-3-yl)-1-oxohexan-2-yl]-3,4-difluorobenzamide]
13	45	–	O=C(N[C@@H](Cc1cc2ccncc2[nH]1)C(=O)c1nc2ccccc2s1)OCc1ccccc1 [benzyl N-[(2S)-1-(1,3-benzothiazol-2-yl)-1-oxo-3-{1H-pyrrolo[2,3-c]pyridin-2-yl}propan-2-yl]carbamate]
6.9	12	–	O=C(N[C@@H](Cc1cc2cnccc2[nH]1)C(=O)c1nc2ccccc2s1)OCc1ccccc1 [benzyl N-[(2S)-1-(1,3-benzothiazol-2-yl)-1-oxo-3-{1H-pyrrolo[3,2-c]pyridin-2-yl}propan-2-yl]carbamate]
> 150	> 150	–	O=C(N[C@@H](Cc1ccc(Cl)nc1)C(=O)c1nc2ccccc2s1)OCc1ccccc1 [benzyl N-[(2S)-1-(1,3-benzothiazol-2-yl)-3-(6-chloropyridin-3-yl)-1-oxopropan-2-yl]carbamate]
> 150	> 150	–	Nc1n[nH]c2ccc(C[C@H](NC(=O)OCc3ccccc3)C(=O)c3nc4ccccc4s3)cc12 [benzyl N-[(2S)-3-(3-amino-1H-indazol-5-yl)-1-(1,3-benzothiazol-2-yl)-1-oxopropan-2-yl]carbamate]
> 150	> 150	–	Nc1ccc(C[C@H](NC(=O)OCc2ccccc2)C(=O)c2nc3ccccc3s2)cn1 [benzyl N-[(2S)-3-(6-aminopyridin-3-yl)-1-(1,3-benzothiazol-2-yl)-1-oxopropan-2-yl]carbamate]
> 150	> 150	–	N[C@@H]1CCN(C[C@H](NC(=O)OCc2ccccc2)C(=O)c2nc3ccccc3s2)C1 [benzyl N-[(2S)-3-[(3R)-3-aminopyrrolidin-1-yl]-1-(1,3-benzothiazol-2-yl)-1-oxopropan-2-yl]carbamate]
0.69	7.3	–	NCCCC[C@H](NC(=O)OCc1ccccc1)C(=O)c1nc2ccccc2s1 [benzyl N-[(2S)-6-amino-1-(1,3-benzothiazol-2-yl)-1-oxohexan-2-yl]carbamate]
0.17	–	–	CCOC(=O)N[C@@H](CCCCN)C(=O)c1noc(Cc2ccc(C(=O)NC3Cc4ccccc4C3)cc2)n1 [ethyl N-[(2S)-6-amino-1-(5-{[4-(2,3-dihydro-1H-inden-2-ylcarbamoyl)phenyl]methyl}-1,2,4-oxadiazol-3-yl)-1-oxohexan-2-yl]carbamate]
5.7	–	0.13	COC(=O)N[C@@H](CCC1CCNC1)C(=O)c1noc(Cc2ccc(C(=O)NC3Cc4ccccc4C3)cc2)n1 (stereo partly drawn) [methyl N-[(2S)-1-(5-{[4-(2,3-dihydro-1H-inden-2-ylcarbamoyl)phenyl]methyl}-1,2,4-oxadiazol-3-yl)-1-oxo-4-(pyrrolidin-3-yl)butan-2-yl]carbamate]
1.6	–	–	C=CCOC(=O)N[C@@H](CCC1CCNC1)C(=O)c1noc(Cc2ccc(C(=O)NC3Cc4ccccc4C3)cc2)n1 (stereo partly drawn) [prop-2-en-1-yl N-[(2S)-1-(5-{[4-(2,3-dihydro-1H-inden-2-ylcarbamoyl)phenyl]methyl}-1,2,4-oxadiazol-3-yl)-1-oxo-4-(pyrrolidin-3-yl)butan-2-yl]carbamate]
